In ChEMBL document CHEMBL3991601, “The target landscape of clinical kinase drugs” (Science, 2017) one finds Kd data, which are given here for seven compounds.

The target in assay [1] is 26S proteasome regulatory subunit 6B (Homo sapiens, UniProt P43686).
Assay [2] deals with T1, Mitogen-activated protein kinase kinase kinase kinase 2 (Homo sapiens, UniProt Q12851).
T1 sequence (Q12851 whole entry): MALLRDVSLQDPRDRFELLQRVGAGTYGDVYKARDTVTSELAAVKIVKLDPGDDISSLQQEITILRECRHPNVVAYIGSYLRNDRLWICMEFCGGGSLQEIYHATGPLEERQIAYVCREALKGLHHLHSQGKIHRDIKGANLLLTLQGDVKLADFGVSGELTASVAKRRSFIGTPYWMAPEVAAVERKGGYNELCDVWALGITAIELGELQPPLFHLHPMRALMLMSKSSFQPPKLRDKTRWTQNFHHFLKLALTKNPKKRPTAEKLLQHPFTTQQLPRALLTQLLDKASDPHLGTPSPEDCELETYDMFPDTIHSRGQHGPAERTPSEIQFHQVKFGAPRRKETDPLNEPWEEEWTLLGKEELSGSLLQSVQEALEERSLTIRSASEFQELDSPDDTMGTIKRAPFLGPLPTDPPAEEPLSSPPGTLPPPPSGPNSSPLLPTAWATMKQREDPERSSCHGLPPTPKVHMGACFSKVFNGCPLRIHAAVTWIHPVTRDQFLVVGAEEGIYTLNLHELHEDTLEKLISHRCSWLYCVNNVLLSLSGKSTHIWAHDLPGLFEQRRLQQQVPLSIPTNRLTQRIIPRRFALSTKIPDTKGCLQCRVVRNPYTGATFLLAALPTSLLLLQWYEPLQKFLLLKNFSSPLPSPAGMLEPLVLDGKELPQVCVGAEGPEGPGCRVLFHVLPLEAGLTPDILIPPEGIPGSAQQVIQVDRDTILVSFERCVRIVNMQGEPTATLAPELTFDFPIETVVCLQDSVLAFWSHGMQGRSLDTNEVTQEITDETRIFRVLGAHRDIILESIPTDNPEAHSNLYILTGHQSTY

The target of assay [3] is T2, Electron transfer flavoprotein subunit beta (Homo sapiens, UniProt P38117).
T2 sequence (P38117 whole entry): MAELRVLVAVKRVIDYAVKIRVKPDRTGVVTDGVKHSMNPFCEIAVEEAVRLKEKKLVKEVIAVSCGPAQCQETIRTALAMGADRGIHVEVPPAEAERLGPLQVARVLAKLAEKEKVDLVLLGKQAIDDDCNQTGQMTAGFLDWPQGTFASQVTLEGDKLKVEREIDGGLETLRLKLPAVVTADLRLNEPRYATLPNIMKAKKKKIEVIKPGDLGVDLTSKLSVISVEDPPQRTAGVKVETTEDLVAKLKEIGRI

The target in assay [4] is T3, DNA replication licensing factor MCM4 (Homo sapiens, UniProt P33991).
T3 sequence (P33991 whole entry): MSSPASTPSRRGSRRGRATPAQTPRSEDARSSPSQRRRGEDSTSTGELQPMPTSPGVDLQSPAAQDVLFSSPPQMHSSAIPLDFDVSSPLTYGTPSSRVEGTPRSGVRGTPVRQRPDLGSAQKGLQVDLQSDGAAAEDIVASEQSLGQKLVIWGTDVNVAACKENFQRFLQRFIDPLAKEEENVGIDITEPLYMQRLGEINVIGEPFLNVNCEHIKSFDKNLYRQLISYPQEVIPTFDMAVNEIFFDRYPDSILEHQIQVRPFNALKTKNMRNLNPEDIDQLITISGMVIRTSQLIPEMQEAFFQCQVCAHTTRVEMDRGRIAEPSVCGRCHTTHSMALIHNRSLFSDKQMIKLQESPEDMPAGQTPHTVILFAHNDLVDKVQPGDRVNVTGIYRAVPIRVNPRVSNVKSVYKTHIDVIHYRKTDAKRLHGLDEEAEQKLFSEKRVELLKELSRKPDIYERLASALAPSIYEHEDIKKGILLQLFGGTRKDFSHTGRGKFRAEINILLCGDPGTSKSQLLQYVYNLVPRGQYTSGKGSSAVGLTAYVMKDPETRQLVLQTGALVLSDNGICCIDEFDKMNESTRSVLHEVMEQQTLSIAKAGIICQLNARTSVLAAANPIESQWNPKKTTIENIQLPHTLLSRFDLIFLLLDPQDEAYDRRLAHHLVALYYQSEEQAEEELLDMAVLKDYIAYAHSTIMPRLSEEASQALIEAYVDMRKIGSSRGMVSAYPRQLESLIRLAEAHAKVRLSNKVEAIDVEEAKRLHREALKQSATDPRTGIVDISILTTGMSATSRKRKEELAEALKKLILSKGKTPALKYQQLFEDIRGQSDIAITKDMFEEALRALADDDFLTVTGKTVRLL

Assay [5] concerns the target T4, Serine/threonine-protein kinase D2 (Homo sapiens, UniProt Q9BZL6).
T4 sequence (Q9BZL6 whole entry): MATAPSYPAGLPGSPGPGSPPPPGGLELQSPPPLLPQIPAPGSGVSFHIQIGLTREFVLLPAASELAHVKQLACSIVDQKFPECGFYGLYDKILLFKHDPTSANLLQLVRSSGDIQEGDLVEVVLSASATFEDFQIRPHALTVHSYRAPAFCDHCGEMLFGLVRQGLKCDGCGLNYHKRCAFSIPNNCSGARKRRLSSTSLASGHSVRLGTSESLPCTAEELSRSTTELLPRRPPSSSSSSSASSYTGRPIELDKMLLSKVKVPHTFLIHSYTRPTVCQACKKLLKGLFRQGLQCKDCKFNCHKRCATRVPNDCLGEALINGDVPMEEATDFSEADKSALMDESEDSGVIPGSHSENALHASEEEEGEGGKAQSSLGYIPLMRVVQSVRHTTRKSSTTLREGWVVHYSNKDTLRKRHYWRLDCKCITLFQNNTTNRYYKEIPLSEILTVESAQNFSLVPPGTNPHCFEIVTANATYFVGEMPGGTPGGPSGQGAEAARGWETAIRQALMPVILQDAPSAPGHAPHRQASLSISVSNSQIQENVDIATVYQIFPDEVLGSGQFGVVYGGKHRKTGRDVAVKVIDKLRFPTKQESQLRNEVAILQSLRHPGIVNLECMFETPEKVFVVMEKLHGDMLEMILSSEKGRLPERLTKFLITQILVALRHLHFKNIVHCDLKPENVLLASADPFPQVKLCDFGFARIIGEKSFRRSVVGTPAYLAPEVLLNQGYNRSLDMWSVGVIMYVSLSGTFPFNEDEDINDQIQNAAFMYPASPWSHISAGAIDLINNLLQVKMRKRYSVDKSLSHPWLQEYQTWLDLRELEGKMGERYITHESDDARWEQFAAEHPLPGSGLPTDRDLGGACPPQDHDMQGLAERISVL

Assay [6] addresses Mitogen-activated protein kinase kinase kinase kinase 4 (Homo sapiens, UniProt O95819).
The target of a further assay is Insulin receptor (Homo sapiens, UniProt P06213).
The target of assay [7] is Eukaryotic translation initiation factor 2-alpha kinase 1 (Homo sapiens, UniProt Q9BQI3).

Activity calls are given as the source filed them. Some results are limits rather than exact numbers.

In general, Kd refers to the concentration at which binding is half-saturated.
Further: in the data inactive means no Kd found up to 30 µM.

Insulin receptor, sequence (P06213 28-758 limits assumed): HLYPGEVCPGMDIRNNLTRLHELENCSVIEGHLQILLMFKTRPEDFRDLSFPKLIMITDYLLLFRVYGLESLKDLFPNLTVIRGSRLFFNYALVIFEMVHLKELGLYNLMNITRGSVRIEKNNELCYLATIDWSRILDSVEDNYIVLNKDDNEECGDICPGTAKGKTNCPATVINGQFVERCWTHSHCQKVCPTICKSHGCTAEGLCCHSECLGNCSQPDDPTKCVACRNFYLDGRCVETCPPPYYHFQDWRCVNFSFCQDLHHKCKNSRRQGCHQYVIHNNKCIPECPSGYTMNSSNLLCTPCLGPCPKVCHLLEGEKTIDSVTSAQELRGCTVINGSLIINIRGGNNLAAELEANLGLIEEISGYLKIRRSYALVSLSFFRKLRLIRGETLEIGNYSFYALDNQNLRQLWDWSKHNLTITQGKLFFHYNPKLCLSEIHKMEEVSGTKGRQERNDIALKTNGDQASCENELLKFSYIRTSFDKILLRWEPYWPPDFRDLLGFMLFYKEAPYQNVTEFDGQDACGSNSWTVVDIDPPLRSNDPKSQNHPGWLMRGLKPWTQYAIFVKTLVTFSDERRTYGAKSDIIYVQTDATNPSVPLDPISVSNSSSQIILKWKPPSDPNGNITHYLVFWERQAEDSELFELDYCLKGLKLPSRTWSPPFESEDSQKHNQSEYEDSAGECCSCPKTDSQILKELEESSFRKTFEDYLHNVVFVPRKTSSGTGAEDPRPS
Insulin receptor, sequence (P06213 763-1382 limits assumed): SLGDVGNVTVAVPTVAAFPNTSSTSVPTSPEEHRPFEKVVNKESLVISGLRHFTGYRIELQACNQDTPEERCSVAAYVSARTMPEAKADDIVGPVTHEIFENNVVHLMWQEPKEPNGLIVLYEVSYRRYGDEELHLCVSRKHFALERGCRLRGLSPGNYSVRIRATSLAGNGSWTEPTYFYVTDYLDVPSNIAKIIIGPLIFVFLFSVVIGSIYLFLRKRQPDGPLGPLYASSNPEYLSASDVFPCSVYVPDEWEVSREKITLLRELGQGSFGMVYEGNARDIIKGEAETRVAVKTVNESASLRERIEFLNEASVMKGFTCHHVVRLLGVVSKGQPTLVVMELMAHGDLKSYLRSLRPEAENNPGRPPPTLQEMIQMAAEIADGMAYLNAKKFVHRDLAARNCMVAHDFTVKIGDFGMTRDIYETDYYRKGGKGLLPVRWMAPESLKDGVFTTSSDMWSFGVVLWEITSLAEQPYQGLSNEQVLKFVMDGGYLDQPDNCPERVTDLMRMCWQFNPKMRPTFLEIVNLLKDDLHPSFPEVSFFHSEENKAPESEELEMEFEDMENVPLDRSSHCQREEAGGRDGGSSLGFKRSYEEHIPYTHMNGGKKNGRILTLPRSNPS
Eukaryotic translation initiation factor 2-alpha kinase 1, sequence (Q9BQI3 whole entry): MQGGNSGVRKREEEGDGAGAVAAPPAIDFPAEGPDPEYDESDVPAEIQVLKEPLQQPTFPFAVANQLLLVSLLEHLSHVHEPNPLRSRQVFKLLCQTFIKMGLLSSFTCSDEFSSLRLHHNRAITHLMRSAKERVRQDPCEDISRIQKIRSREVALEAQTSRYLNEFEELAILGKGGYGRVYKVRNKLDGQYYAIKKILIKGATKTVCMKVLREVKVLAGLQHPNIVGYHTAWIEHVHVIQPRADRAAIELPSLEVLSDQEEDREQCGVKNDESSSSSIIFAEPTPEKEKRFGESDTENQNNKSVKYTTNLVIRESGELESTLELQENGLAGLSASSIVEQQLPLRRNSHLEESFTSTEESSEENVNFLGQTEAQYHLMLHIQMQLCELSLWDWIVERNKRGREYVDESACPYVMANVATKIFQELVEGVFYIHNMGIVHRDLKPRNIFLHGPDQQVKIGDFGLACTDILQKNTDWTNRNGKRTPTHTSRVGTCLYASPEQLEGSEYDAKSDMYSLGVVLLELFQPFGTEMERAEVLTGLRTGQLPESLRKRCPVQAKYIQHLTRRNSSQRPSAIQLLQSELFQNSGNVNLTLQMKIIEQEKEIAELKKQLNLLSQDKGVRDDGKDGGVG
26S proteasome regulatory subunit 6B, sequence (P43686 whole entry): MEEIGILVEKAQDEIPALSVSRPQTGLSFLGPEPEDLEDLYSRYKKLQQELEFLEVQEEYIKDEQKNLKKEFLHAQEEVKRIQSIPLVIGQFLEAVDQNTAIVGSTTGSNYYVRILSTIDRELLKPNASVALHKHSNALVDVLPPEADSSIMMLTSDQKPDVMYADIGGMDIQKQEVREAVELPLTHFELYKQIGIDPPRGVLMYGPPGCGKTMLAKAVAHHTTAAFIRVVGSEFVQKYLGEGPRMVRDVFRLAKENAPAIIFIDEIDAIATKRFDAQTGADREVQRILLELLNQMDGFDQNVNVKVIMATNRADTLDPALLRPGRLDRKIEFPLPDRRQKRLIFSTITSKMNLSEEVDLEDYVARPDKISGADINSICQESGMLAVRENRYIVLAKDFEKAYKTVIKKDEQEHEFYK
Mitogen-activated protein kinase kinase kinase kinase 4, sequence (O95819 whole entry): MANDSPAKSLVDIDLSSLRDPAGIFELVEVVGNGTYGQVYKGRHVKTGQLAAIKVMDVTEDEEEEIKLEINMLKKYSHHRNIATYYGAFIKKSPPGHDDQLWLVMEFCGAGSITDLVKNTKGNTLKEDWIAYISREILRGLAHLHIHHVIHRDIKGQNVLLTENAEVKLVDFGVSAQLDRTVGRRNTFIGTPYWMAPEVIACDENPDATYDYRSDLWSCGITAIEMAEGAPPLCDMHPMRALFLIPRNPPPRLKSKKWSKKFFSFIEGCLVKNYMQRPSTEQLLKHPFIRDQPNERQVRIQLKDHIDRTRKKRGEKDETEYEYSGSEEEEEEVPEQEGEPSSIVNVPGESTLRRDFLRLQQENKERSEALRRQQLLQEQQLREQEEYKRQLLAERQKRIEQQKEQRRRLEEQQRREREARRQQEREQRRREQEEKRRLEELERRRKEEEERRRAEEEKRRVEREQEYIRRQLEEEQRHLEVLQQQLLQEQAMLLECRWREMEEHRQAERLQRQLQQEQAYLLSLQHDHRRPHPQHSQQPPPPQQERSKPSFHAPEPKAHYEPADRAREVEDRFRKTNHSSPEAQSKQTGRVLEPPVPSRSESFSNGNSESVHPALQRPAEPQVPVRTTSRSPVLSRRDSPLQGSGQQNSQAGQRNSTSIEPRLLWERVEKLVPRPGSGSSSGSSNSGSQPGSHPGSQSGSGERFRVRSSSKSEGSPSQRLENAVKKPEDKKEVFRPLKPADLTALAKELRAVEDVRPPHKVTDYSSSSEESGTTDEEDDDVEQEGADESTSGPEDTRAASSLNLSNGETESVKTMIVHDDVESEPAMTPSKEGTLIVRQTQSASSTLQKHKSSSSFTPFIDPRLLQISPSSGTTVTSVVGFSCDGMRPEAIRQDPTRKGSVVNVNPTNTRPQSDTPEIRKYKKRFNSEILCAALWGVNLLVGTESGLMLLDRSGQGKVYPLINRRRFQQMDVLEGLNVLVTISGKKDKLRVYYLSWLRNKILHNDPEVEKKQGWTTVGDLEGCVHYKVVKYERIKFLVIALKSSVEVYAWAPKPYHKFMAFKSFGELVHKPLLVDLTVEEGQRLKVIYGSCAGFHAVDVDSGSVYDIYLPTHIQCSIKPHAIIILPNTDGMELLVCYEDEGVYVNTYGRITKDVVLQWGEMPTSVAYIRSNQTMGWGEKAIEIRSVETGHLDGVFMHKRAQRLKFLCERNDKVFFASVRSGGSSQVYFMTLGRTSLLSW

Consider `CNC(=O)c1cc(COc2nnc(Nc3ccc(Cl)cc3)c3ccoc23)ccn1` [TELATINIB], for which the Kd in assay [1], in assay [2], in assay [3], in assay [4], in assay [5] and in assay [6] was > 30 µM (inactive) in each case. Moreover, the Kd (on Insulin receptor; in assay [7]) was > 30 µM (inactive) in each case.
Take `CNC(=O)c1cccc(-c2ccc3c(N4CCOC[C@@H]4C)nc(N4CCOC[C@@H]4C)nc3n2)c1` [VISTUSERTIB]: the Kd in assay [1], in assay [2], in assay [3], in assay [4], in assay [5] and in assay [6] was > 30 µM (inactive) in each case. Further, the Kd (on Insulin receptor; in assay [7]) was > 30 µM (inactive) each time.
As for `O=C(NC[C@H](O)CO)c1ccncc1Nc1ccc(I)cc1F` [PIMASERTIB], the Kd in assay [1], in assay [2], in assay [3], in assay [4], in assay [5] and in assay [6] was > 30 µM (inactive) throughout. In addition, the Kd (at Insulin receptor; in assay [7]) was > 30 µM (inactive) in each case.
Turning to `O=C(NOC[C@H](O)CO)c1ccc(F)c(F)c1Nc1ccc(I)cc1F` [MIRDAMETINIB], the Kd in assay [1], in assay [2], in assay [3], in assay [4], in assay [5] and in assay [6] was > 30 µM (inactive) throughout. In addition, the Kd (at Insulin receptor; in assay [7]) was > 30 µM (inactive) in each case.
Regarding `CC1(COc2ccc3c(c2)ncn3-c2ccc3cccc(N4CCC(N)CC4)c3n2)COC1` [CRENOLANIB], the Kd in assay [1] is > 30 µM (inactive); in assay [2] it was > 30 µM (inactive); in assay [3], 0.012 µM; in assay [4], > 30 µM (inactive); in assay [5], > 30 µM (inactive); in assay [6] it was 0.282 µM (active). Moreover, the Kd (on Insulin receptor; in assay [7]) was > 30 µM (inactive) in each case.
`COc1ccc2c(OCc3nnc4ccc(-c5ccccc5)nn34)ccnc2c1` [AMG-208]: the Kd in assay [1], in assay [2], in assay [3], in assay [4], in assay [5] and in assay [6] was > 30 µM (inactive) throughout. Besides, the Kd (at Insulin receptor; in assay [7]) was > 30 µM (inactive) in each case.
`COc1ccc(-c2ccc3ncc4c(c3c2)n(-c2ccc(N3CCNCC3)c(C(F)(F)F)c2)c(=O)n4C)cn1` [BGT-226 FREE BASE]: the Kd in assay [1], in assay [2], in assay [3], in assay [4], in assay [5] and in assay [6] was > 30 µM (inactive) each time. In addition, the Kd (on Insulin receptor; in assay [7]) was > 30 µM (inactive) each time.
